From patent US4568687A, “N-[2-4-(1H-Imidazol-1-yl)alkyl]-arylamides and pharmaceutical compositions” (American Cyanamid Company, priority 1984, dated 1986)
Where a name gives a salt, the structure may show the parent alone.

The molecules below were run against T1, thromboxane synthetase (Rattus norvegicus, UniProt P49430) (assay: Inhibition of thromboxane (TXB2) formation in washed rat platelets, TXB2 by direct radioimmunoassay). Conditions: 10 min; Dose 10^-4 (unit inferred); SHR platelet suspension, 10 minutes at 37° C.
T1 construct: The platelets were isolated by centrifuging the PRP for 10 minutes; endogenous in cells; host or cells: washed platelets from arterial blood of Okamoto-Aoki spontaneously hypertensive rats (rats from Taconic Farms)
T1 sequence (P49430 1-533): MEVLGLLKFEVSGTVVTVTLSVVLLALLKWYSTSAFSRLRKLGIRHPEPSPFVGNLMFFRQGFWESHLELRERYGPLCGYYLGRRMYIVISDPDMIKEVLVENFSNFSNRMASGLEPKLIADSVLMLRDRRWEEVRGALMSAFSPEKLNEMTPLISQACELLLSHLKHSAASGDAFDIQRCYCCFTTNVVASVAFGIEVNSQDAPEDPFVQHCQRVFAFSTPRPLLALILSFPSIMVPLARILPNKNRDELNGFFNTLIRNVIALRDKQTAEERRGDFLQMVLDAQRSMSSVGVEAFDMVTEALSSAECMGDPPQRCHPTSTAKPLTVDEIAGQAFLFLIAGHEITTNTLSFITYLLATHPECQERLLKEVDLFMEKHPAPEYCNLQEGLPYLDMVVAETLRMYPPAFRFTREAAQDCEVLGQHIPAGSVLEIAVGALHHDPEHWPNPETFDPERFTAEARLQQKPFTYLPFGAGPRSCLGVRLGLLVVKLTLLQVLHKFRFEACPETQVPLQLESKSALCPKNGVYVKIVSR
Type: cell-based, Okamoto-Aoki spontaneously hypertensive rats (SHR)
Experimental: Under urethan anesthesia, […] of arterial blood was collected in one ml. of 3.2% sodium citrate in a polystyrene tube from Okamoto-Aoki spontaneously hypertensive rats (SHR) (Taconic Farms, Germantown, NY) between 19 and 24 weeks in age. The blood was diluted with 3 ml. cold saline and centrifuged at room temperature for 15 minutes at 460×g. The platelet rich plasma (PRP) was separated. The platelets were isolated by centrifuging the PRP for 10 minutes at 1060×g and were washed in 4 ml. cold oxygenated Krebs phosphate buffer, pH 7.4. The chilled patelets recovered from centrifuging at 800×g for 10 minutes were resuspended in oxygenated Krebs phosphate buffer and diluted to contain 4.5-6.0×10^4 platelets/μl.
The inhibition of thromboxane (TX) formation was studied by determining the […] of thromboxane B2 (TXB2), the stable hydrolysis product of TXA2. Assay samples, prepared on ice, contained 200 μl platelet suspension, 50 μl saline, and 50 μl vehicle or drug under study (OKY-1581, UK-37248-01, 1-benzylimidazole, or indomethacin). The samples were incubated for 10 minutes at 37° C. in a metabolic shaker. The reaction was terminated by immersing the tubes in an ice bath and adding 50 μl of 0.5M citric acid. The samples were centrifuged for 10 minutes in a refrigerated centrifuge and the supernatants thus obtained were decanted and stored at -20° C. The TXB2 content for each sample was determined by a direct radioimmunoassay (RIA) utilizing a TXB2 specific RIA kit purchased from New England Nuclear, Boston, MA and expressed as pg TXB2 formed minute^-1 sample^-1, from which the percent inhibition of TXB2 formation was calculated.

inhibition at 100 µM [%] | Structure (SMILES)
92 | O=C1c2ccccc2C(=O)N1CCCCCn1ccnc1 [2-[5-(1H--imidazol-1-yl)pentyl]-1H--isoindole-1,3(2H)--dione]
86 | CCNc1ccccc1C(=O)NCCCn1ccnc1 [2-ethylamino-N--[3-(1H--imidazol-1-yl)propyl]benzamide]
92.7 | O=C(NCCCn1ccnc1)c1ccc(Cl)c(Cl)c1 [3,4-dichloro-N--[3-(1H--imidazol-1-yl)propyl]benzamide]
93 | Cc1cn(CCCNC(=O)c2cccc(Br)c2)cn1 [3-bromo-N--[3-(4-methyl-1H--imidazol-1-yl)propyl]benzamide]
66 | O=C(NCCCn1cnc(-c2ccccc2)c1)c1ccc(Br)cc1 [4-Bromo-N-[3-(4-phenyl-1H-imidazol-1-yl)propyl]benzamide]
89.5 | CC(=O)c1ccc(C(=O)NCCCn2ccnc2)cc1 [4-acetyl-N--[3-(1H--imidazol-1-yl)propyl]benzamide]
91 | CC(CCNC(=O)c1ccc(Br)cc1)n1ccnc1 (centres unmarked) [4-bromo-N--[3-(1H--imidazol-1-yl)butyl]benzamide]
100 | CC(CNC(=O)c1ccc(Cl)cc1)Cn1ccnc1 (centres unmarked) [4-chloro-N--[3-(1H--imidazol-1-yl)-2-methylpropyl]benzamide fumarate]
53.1 | O=C(Cc1ccc(F)cc1)NCCCn1ccnc1 [4-fluoro-N--[3-(1H--imidazol-1-yl)propyl]benzeneacetamide, fumarate]
99 | Cc1cn(CCCNC(=O)c2ccc(I)cc2)cn1 [4-iodo-N--[3-(4-methyl-1H--imidazol-1-yl)propyl]benzamide]
88.9 | COc1ccc(C(=O)NCCCn2ccnc2)cc1 [N--[3-(1H--imidazol-1-yl)propyl]-4-methoxybenzamide]
100 | O=C(NCCCn1ccnc1)C1c2ccccc2-c2ccccc21 [N--[3-(1H--imidazol-1-yl)propyl]-9H--fluorene-9-carboxamide]
86.2 | O=C(COc1ccccc1)NCCCn1ccnc1 [N-[3-(1H-Imidazol-1-yl)propyl]-2-phenoxyacetamide]
84 | O=C(NCCCn1ccnc1)C(c1ccccc1)c1ccccc1 [N-[3-(1H-imidazol-1-yl)propyl]diphenylacetamide]

Further lines, the molecule ahead of its results:

Structure (SMILES) | inhibition at 100 µM [%]
O=C(COc1cccc(Cl)c1Cl)NCCCn1ccnc1 [2-(2,3-dichlorophenoxy)-N--[3-(1H--imidazol-1-yl)propyl]acetamide, fumarate] | 100
O=C(COc1ccc(Cl)cc1)NCCCn1ccnc1 [2-(4-chlorophenoxy)-N--[3-(1H--imidazol-1-yl)propyl]acetamide] | 84.6
O=C(NCCCn1ccnc1)c1ccccc1Cl [2-chloro-N--[3-(1H--imidazol-1-yl)propyl]benzamide] | 99.7
O=C(NCCCn1ccnc1)c1ccccc1F [2-fluoro-N--[3-(1H--imidazol-l-yl)propyl]benzamide] | 83.9
O=C(NCCCCn1ccnc1)c1ccc(Cl)c(Cl)c1 [3,4-Dichloro-N-[4-(1H-imidazol-1-yl)butyl]benzamide] | 100
O=C(NCCn1ccnc1)c1ccc(Cl)c(Cl)c1 [3,4-dichloro-N--[2-(1H--imidazol-1-yl)ethyl]benzamide] | 58.5
CC(CCNC(=O)c1cccc(Cl)c1)n1ccnc1 (centres unmarked) [3-chloro-N--[3-(1H--imidazol-1-yl)butyl]benzamide] | 93
O=C(NCCCn1ccnc1)c1cccc(F)c1 [3-fluoro-N--[3-(1H--imidazol-1-yl)propyl]benzamide] | 95.8
O=C(NCCCn1ccnc1)c1cccc(C(F)(F)F)c1 [3-trifluoromethyl-N--[3-(1H--imidazol-1-yl)propyl]benzamide] | 84
CC(=O)Nc1ccc(C(=O)NCCCn2ccnc2)cc1 [4-(acetylamino)-N--[3-(1H--imidazol-1-yl)propyl]benzamide] | 98.7
O=C(NCCCn1ccnc1)c1ccc(C(=O)c2ccccc2)cc1 [4-benzoyl-N--[3-(1H--imidazol-1-yl)propyl]benzamide] | 103
O=C(NC(CCn1ccnc1)c1ccccc1)c1ccc(Br)cc1 (centres unmarked) [4-bromo-N--[3-(1H--imidazol-1-yl)-1-phenylpropyl]benzamide] | 100
O=C(NC(CCn1ccnc1)c1ccccc1)c1ccc(Cl)cc1 (centres unmarked) [4-chloro-N--[3-(1H--imidazol-1-yl)-1-phenylpropyl]benzamide] | 100
CC(CCNC(=O)c1ccc(Cl)cc1)n1ccnc1 (centres unmarked) [4-chloro-N--[3-(1H--imidazol-1-yl)butyl]benzamide] | 96
N#Cc1ccc(C(=O)NCCCn2ccnc2)cc1 [4-cyano-N--[3-(1H--imidazol-1-yl)propyl]benzamide] | 90.7
O=C(NCCCn1ccnc1)c1ccc(F)cc1 [4-fluoro-N--[3-(1H--imidazol-1-yl)propyl]benzamide] | 87.1
Cc1ccc(CC(=O)NCCCn2cnc(C)c2)cc1 [4-methyl-N--[3-(4-methyl-1H--imidazol-1-yl)propyl]phenylacetamide] | 76
CNc1ccccc1C(=O)NCCCn1ccnc1 [N--[3-(1H--imidazol-1-yl)propyl]-2-methylaminobenzamide] | 57
COc1cc(C(=O)NCCCn2ccnc2)cc(OC)c1OC [N--[3-(1H--imidazol-1-yl)propyl]-3,4,5-trimethoxybenzamide] | 101
CN(C)c1ccc(C(=O)NCCCn2ccnc2)cc1 [N--[3-(1H--imidazol-1-yl)propyl]-4-(dimethylamino)benzamide] | 93
CS(=O)(=O)c1ccc(C(=O)NCCCn2ccnc2)cc1 [N--[3-(1H--imidazol-1-yl)propyl]-4-(methylsulfonyl)benzamide] | 80.1
CSc1ccc(C(=O)NCCCn2ccnc2)cc1 [N--[3-(1H--imidazol-1-yl)propyl]-4-(methylthio)-benzamide] | 102
O=C(NCCCn1ccnc1)c1ccc(I)cc1 [N--[3-(1H--imidazol-1-yl)propyl]-4-iodobenzamide] | 96.7
Cc1ccc(C(=O)NCCCn2ccnc2)cc1 [N--[3-(1H--imidazol-1-yl)propyl]-4-methylbenzamide] | 83.2
O=C(NCCCn1ccnc1)c1ccc(-c2ccccc2)cc1 [N--[3-(1H--imidazol-1-yl)propyl][1,1'-biphenyl]-4-carboxamide] | 106
O=C(NCCCCn1ccnc1)c1cccc2ccccc12 [N--[4-(1H--imidazol-1-yl)butyl]-naphthalene-1-carboxamide] | 95
O=C(NCCCn1ccnc1)C(=O)c1ccccc1 [N-[3-(1H-Imidazol-1-yl)propyl]-α-oxo-benzeneacetamide, fumarate] | 79.7
